Literature values, collected in article PMC10035389, “Safety, Tolerability, and Pharmacokinetics of TAK-931, a Cell Division Cycle 7 Inhibitor, in Patients with Advanced Solid Tumors: A Phase I First-in-Human Study” (Cancer Research Communications, 2022).

Test system: patients with advanced solid tumors
Settings: human, in vivo; cited from earlier work

For `C[C@@]1(c2ncncc2F)NC(=O)c2cc(-c3cn[nH]c3)ccc21` [LY3143921], the “Rate of drug-related orthostatic hypotension” value is listed as 50%.
